Reference: US10266526B2, “Substituted 1,2,3-triazoles as SMYD inhibitors for treating cancer” (EPIZYME, INC., priority 2014, dated 2019)
pIC50: −log10 of the molar value.

Each compound was assayed against SMYD2 (Homo sapiens (Human), UniProt Q9NRG4) (assay: SMYD2 biochemical assay (SMYD2 enzyme assay on peptide substrate, 3H-SAM Flashplate)). Details: read-out: SMYD2 Biochem IC50; IC50 values are an average of n = 1 to n = 50.
Sequence of SMYD2 (Q9NRG4 whole entry): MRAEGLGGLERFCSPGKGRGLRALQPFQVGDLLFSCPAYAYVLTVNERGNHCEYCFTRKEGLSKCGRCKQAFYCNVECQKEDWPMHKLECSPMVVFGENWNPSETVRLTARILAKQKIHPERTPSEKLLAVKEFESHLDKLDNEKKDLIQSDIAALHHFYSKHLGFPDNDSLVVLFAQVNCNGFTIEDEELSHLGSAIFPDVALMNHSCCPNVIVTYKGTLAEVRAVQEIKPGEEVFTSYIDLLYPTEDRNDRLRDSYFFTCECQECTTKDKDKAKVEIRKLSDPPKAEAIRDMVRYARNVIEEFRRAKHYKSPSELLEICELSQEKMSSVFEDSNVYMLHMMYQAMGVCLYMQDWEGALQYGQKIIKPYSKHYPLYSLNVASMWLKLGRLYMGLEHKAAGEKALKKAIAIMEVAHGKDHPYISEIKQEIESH

Q: With CC(C)N1CC(NC(=O)c2cn(C3CC3)cn2)C1 [compound 919, 1-cyclopropyl-N-(1-isopropylazetidin-3-yl)-1H-imidazole-4-carboxamide] as the compound, how does the pIC50 read?
A: The pIC50 was 5.34.

Q: How did the pIC50 turn out when CC(c1ccc2[nH]nc(-c3ccccc3Cl)c2c1)N1CC(NC(=O)c2cn(C3CC3)nn2)C1 (centres unmarked) [compound 920, N-(1-(1-(3-(2-chlorophenyl)-1H-indazol-5-yl)ethyl)azetidin-3-yl)-1-cyclopropyl-1H-1,2,3-triazole-4-carboxamide] was run?
A: Its pIC50 is < 4.30.

Q: With CN(C)CCCNC(=O)c1cn(C2CC2)nn1 [compound 921, 1-cyclopropyl-N-(3-(dimethylamino)propyl)-1H-1,2,3-triazole-4-carboxamide] as the compound, how does the pIC50 read?
A: Its pIC50 is 5.27.

Q: CC(c1ccc(CNc2ccccc2)cc1)N1CC(NC(=O)c2cn(C3CC3)nn2)C1 (centres unmarked) [compound 922, 1-cyclopropyl-N-(1-(1-(4-((phenylamino)methyl)phenyl)ethyl)azetidin-3-yl)-1H-1,2,3-triazole-4-carboxamide] was tested. Which pIC50 did it give?
A: Its pIC50 is 6.19.

Q: COc1ccc(C(C)N2CC(NC(=O)c3cn(C4CC4)nn3)C2)nc1 (centres unmarked) [compound 923, 1-cyclopropyl-N-(1-(1-(5-methoxypyridin-2-yl)ethyl)azetidin-3-yl)-1H-1,2,3-triazole-4-carboxamide] was tested. Which pIC50 did it give?
A: Its pIC50 is 5.57.

Q: How did the pIC50 turn out when CC(c1ccc(OCC2CCNCC2)cc1)N1CC(NC(=O)c2cn(C3CC3)nn2)C1 (centres unmarked) [compound 925, 1-cyclopropyl-N-(1-(1-(4-(piperidin-4-ylmethoxy)phenyl)ethyl)azetidin-3-yl)-1H-1,2,3-triazole-4-carboxamide] was run?
A: Its pIC50 is 5.37.

Q: O=C(NC1CN(Cc2cnn(Cc3ccc(Cl)cc3)c2)C1)c1nc(C2CC2)c[nH]1 [compound 927, N-(1-((1-(4-chlorobenzyl)-1H-pyrazol-4-yl)methyl)azetidin-3-yl)-4-cyclopropyl-1H-imidazole-2-carboxamide] was tested. Which pIC50 did it give?
A: Its pIC50 is 7.96.

Q: Cn1cc(COc2ccc(CN3CC(NC(=O)c4cc(C5CC5)cnn4)C3)cc2)cn1 [compound 928, 5-cyclopropyl-N-(1-(4-((1-methyl-1H-pyrazol-4-yl)methoxy)benzyl)azetidin-3-yl)pyridazine-3-carboxamide] was tested. Which pIC50 did it give?
A: The pIC50 was 6.21.

Q: With O=C(NC1CN(Cc2cnn(Cc3ccc(Cl)cc3)c2)C1)c1cc(C2CC2)cnn1 [compound 929, N-(1-((1-(4-chlorobenzyl)-1H-pyrazol-4-yl)methyl)azetidin-3-yl)-5-cyclopropylpyridazine-3-carboxamide] as the compound, how does the pIC50 read?
A: Its pIC50 is 8.92.

Q: With O=C(NC1CN(Cc2cnn(Cc3ccc(Cl)cc3)c2)C1)c1cc(C2CC2)ccn1 [compound 930, N-(1-((1-(4-chlorobenzyl)-1H-pyrazol-4-yl)methyl)azetidin-3-yl)-4-cyclopropylpicolinamide] as the compound, how does the pIC50 read?
A: The pIC50 was 8.48.

Q: O=C(NC1CN(Cc2cn(Cc3ccccc3)nn2)C1)c1cn(C2CC2)nn1 [compound 931, N-(1-((1-benzyl-1H-1,2,3-triazol-4-yl)methyl)azetidin-3-yl)-1-cyclopropyl-1H-1,2,3-triazole-4-carboxamide] was tested. Which pIC50 did it give?
A: Its pIC50 is 4.95.

Q: With COc1ccc(Cn2cc(CN3CC(NC(=O)c4cn(C5CC5)nn4)C3)cn2)cc1 [compound 932, 1-cyclopropyl-N-(1-((1-(4-methoxybenzyl)-1H-pyrazol-4-yl)methyl)azetidin-3-yl)-1H-1,2,3-triazole-4-carboxamide] as the compound, how does the pIC50 read?
A: The pIC50 was 7.55.

Q: With O=C(NC1CN(Cc2cnn(Cc3ccccc3)c2)C1)c1cc(C2CC2)cnn1 [compound 933, N-(1-((1-benzyl-1H-pyrazol-4-yl)methyl)azetidin-3-yl)-5-cyclopropylpyridazine-3-carboxamide] as the compound, how does the pIC50 read?
A: The pIC50 was 8.11.

Q: How did the pIC50 turn out when COc1cccc(C(C)N2CC(NC(=O)c3cc(C4CC4)cnn3)C2)c1 (centres unmarked) [compound 934, 5-cyclopropyl-N-(1-(1-(3-methoxyphenyl)ethyl)azetidin-3-yl)pyridazine-3-carboxamide] was run?
A: The pIC50 was 6.16.

Q: CC(c1ccc2nn(C)cc2c1)N1CC(NC(=O)c2cn(C3CC3)nn2)C1 (centres unmarked) [compound 935, 1-cyclopropyl-N-(1-(1-(2-methyl-2H-indazol-5-yl)ethyl)azetidin-3-yl)-1H-1,2,3-triazole-4-carboxamide] was tested. Which pIC50 did it give?
A: The pIC50 was 5.80.

Q: O=C(NC1CN(Cc2cnn(Cc3ccc4scnc4c3)c2)C1)c1cn(C2CC2)nn1 [compound 936, N-(1-((1-(benzo[d]thiazol-5-ylmethyl)-1H-pyrazol-4-yl)methyl)azetidin-3-yl)-1-cyclopropyl-1H-1,2,3-triazole-4-carboxamide] was tested. Which pIC50 did it give?
A: The pIC50 was 7.10.

Q: Cc1coc(Cn2cc(CN3CC(NC(=O)c4cn(C5CC5)nn4)C3)cn2)n1 [compound 937, 1-cyclopropyl-N-(1-((1-((4-methyloxazol-2-yl)methyl)-1H-pyrazol-4-yl)methyl)azetidin-3-yl)-1H-1,2,3-triazole-4-carboxamide] was tested. Which pIC50 did it give?
A: The pIC50 was 6.92.

Q: With COc1ccc(Cl)c(C(C)N2CC(NC(=O)c3cn(C4CC4)nn3)C2)c1 (centres unmarked) [compound 938, N-(1-(1-(2-chloro-5-methoxyphenyl)ethyl)azetidin-3-yl)-1-cyclopropyl-1H-1,2,3-triazole-4-carboxamide] as the compound, how does the pIC50 read?
A: The pIC50 was 6.89.

Q: How did the pIC50 turn out when COc1cc(C(C)N2CC(NC(=O)c3cn(C4CC4)nn3)C2)ccc1OCc1ccccc1 (centres unmarked) [compound 939, N-(1-(1-(4-(benzyloxy)-3-methoxyphenyl)ethyl)azetidin-3-yl)-1-cyclopropyl-1H-1,2,3-triazole-4-carboxamide] was run?
A: Its pIC50 is 5.44.

Q: How did the pIC50 turn out when O=C(NC1CN(Cc2cn[nH]c2)C1)c1cn(C2CC2)nn1 [compound 940, N-(1-((1H-pyrazol-4-yl)methyl)azetidin-3-yl)-1-cyclopropyl-1H-1,2,3-triazole-4-carboxamide] was run?
A: The pIC50 was 5.11.

Q: How did the pIC50 turn out when CSc1ccc(Cn2cc(CN3CC(NC(=O)c4cn(C5CC5)nn4)C3)cn2)cc1 [compound 941, 1-cyclopropyl-N-(1-((1-(4-(methylthio)benzyl)-1H-pyrazol-4-yl)methyl)azetidin-3-yl)-1H-1,2,3-triazole-4-carboxamide] was run?
A: The pIC50 was 7.55.

Q: How did the pIC50 turn out when O=C(NC1CN(Cc2cnn(Cc3ccccc3Cl)c2)C1)c1cn(C2CC2)nn1 [compound 942, N-(1-((1-(2-chlorobenzyl)-1H-pyrazol-4-yl)methyl)azetidin-3-yl)-1-cyclopropyl-1H-1,2,3-triazole-4-carboxamide] was run?
A: Its pIC50 is 6.96.

Q: How did the pIC50 turn out when O=C(NC1CN(Cc2cnn(Cc3ccc(C(F)(F)F)cc3)c2)C1)c1cn(C2CC2)nn1 [compound 943, 1-cyclopropyl-N-(1-((1-(4-(trifluoromethyl)benzyl)-1H-pyrazol-4-yl)methyl)azetidin-3-yl)-1H-1,2,3-triazole-4-carboxamide] was run?
A: Its pIC50 is 7.85.

Q: With O=C(NC1CN(Cc2cnn(Cc3ncco3)c2)C1)c1cn(C2CC2)nn1 [compound 944, 1-cyclopropyl-N-(1-((1-(oxazol-2-ylmethyl)-1H-pyrazol-4-yl)methyl)azetidin-3-yl)-1H-1,2,3-triazole-4-carboxamide] as the compound, how does the pIC50 read?
A: The pIC50 was 6.04.

Q: O=C(NC1CN(Cc2cnn(Cc3cscn3)c2)C1)c1cn(C2CC2)nn1 [compound 945, 1-cyclopropyl-N-(1-((1-(thiazol-4-ylmethyl)-1H-pyrazol-4-yl)methyl)azetidin-3-yl)-1H-1,2,3-triazole-4-carboxamide] was tested. Which pIC50 did it give?
A: The pIC50 was 5.92.

Q: With CCn1cc(CN2CC(NC(=O)c3cn(C4CC4)nn3)C2)cn1 [compound 946, 1-cyclopropyl-N-(1-((1-ethyl-1H-pyrazol-4-yl)methyl)azetidin-3-yl)-1H-1,2,3-triazole-4-carboxamide] as the compound, how does the pIC50 read?
A: The pIC50 was 5.70.
